# According to patent publication US20250368639A1, “SOLID FORMS OF A COMPOUND FOR TREATING OR PREVENTING HYPERURICEMIA OR GOUT” (ATOM THERAPEUTICS CO., LTD, priority 2022, published 2025):
# Read-outs that look alike come from different tables or passages of the source.
# Tests used:
# [1] = Dynamic vapor sorption/desorption (DVS); format: physicochemical
# Description: Moisture sorption/desorption data were collected on a SMS DVS intrinsic Vapor Sorption Analyzer under a nitrogen purge. The DVS experiment generally includes a moisture sorption step and a moisture desorption step. […] In other words, the sample is considered to have reached an equilibrium between moisture sorption and desorption under the relative humidity when dm/dt≤0.01%. The sample was maintained at the temperature of 25° C. with relative humidity varied from 0% to 95%, and back to 0% at an increment of 5% RH each step.
# [2] = Single-dose pharmacokinetic study, oral and intravenous, in SD rats; format: in vivo, SD rat; details: for AUC(0-t) / Cmax / MRT last / AUC(0-inf) / clearance / half-life / Vd / Vd/F: male, SD, rat, plasma; for AUC(0-inf): read-out: AUCINF—pred; for clearance: read-out: Cl—pred (converted); for half-life: read-out: HL_Lambda_z (T1/2) (converted); for Vd: read-out: Vz—pred; for Vd/F: read-out: Vz—F—pred
# Description: Form 1, Form 2, and Form 5D were each evaluated via a single-dose pharmacokinetic study following oral and intravenous administration in SD rats. […] Form 1, Form 2, and Form 5Dwere evaluated by rat pharmacokinetics study.
# Male SD rat was purchased from Shanghai Sippr B&K Laboratory Animals Co., Ltd. The weight was 180 g˜200 g.
# 20% HP-β-CD was prepared from dissolving20 g of HP-β-CD (from Sigma) in 100 mL purified water. 0.5% CMC-Na was prepared from dissolving 1 g of CMC-Na (from Aladdin) in 200 mL purified water. The solutions were stored at 2-8 degree.
# (§1) Group 1:4.95 mg (equivalent to 4.50 mg of anhydrous free base) of Form 1 was weighed out into a 20 ml bottle, and totally dissolved by 0.225 mL DMSO by sonication. After that, 4.275 mL of 20% HP-β-CD was added, mixed well by sonication. Finally, the pH value was adjusted to 7.0 by sodium hydroxide solution. The clear solution was obtained, and the concentration was 1 mg/mL.
# Group 2:10.08 mg (equivalent to 9.164 mg of anhydrous free base) of Form 1 was weighed out into a 20 ml bottle, and then 9.164 mL of 0.5% CMC-Na was added. A white suspension was formed after sonicated by ultrasonic cell disruptor, and the concentration was 1 mg/mL.
# Group 3:9.47 mg of Form 2 was weighed out into a 20 ml bottle, and then 9.470 mL of 0.5% CMC-Na was added. After sonicated, it was mixed well by homogenizer for 2 minutes. Finally, a white suspension was formed, and the concentration was 1 mg/mL.
# Group 4:9.80 mg (equivalent to 8.909 mg of free base) of Form 5Dwas weighed out into a 20 mL bottle, and then 8.909 mL of 0.5% CMC-Na was added. After sonicated, it was mixed well by homogenizer for 2 minutes. Finally, a white suspension was formed, and the concentration was 1 mg/mL.
# as §1, with “Group 5:1.94” for “Group 1:4.95”, “to 1.763” for “to 4.50”, “by 0.088” for “by 0.225”, “that, 1.675” for “that, 4.275”, “was 0.2” for “was 1”
# The dose of intravenous administration was 1 mg/kg and 5 mg/kg, respectively. The oral dose was 10 mg/kg. Animals were fasted overnight before drug administration. After the drug administration, the rats were fed at the 4 hours.
# About 150˜200 μL of blood was collected at the initial time (only intravenous), and at 0.25, 0.5, 1, 2, 4, 6, 8 and 24 h by jugular venipuncture blooding method. EDTA-K2 was selected as anticoagulant. Blood samples were centrifuged within one hour at 6000 rpm for 8 minutes (placed on wet ice before centrifugation). The supernatant was stored at −20° C. for LC-MS/MS analysis.
# The computer program Microsoft Office Excel 2007 (Microsoft, USA) was used to process data and graphics. The pharmacokinetic parameters were calculated by WinNolin 6.4 software.
# [3] = iv, 1 mg/kg, male SD rats, intravenous 1 mg/kg, Average
# [4] = iv, 1 mg/kg, male SD rats, intravenous 1 mg/kg, individual rats 501/502/503 (c1/c2/c3)
# [5] = iv, 5 mg/kg, male SD rats, 5 mg/kg (intravenous), Average
# [6] = iv, 5 mg/kg, male SD rats, 5 mg/kg (intravenous), individual rats 101/102/103 (c1/c2/c3)
# [7] = po, 10 mg/kg, male SD rats, oral 10 mg/kg, Average (Table 9)
# [8] = po, 10 mg/kg, male SD rats, oral 10 mg/kg, individual rats 201/202/203 (c1/c2/c3)
structure (smiles),measurement,setting,value
"CCc1nc2ccccn2c1C(=O)c1cc(Br)c(O)c(C#N)c1 [Form 1, 3-bromo-5-[(2-ethylimidazo[1,2-a]pyridin-3-yl)carbonyl]-2-hydroxybenzonitrile]",DVS (80% RH),"[1]; 25° C., 80% RH",5.32%
same,DVS (85% RH),"[1]; 25° C., 85% RH",5.68%
same,Moisture absorbed (DVS),[1]; relative humidity cycled from 0% RH to 5% RH,about 3.4 % by weight
same,Exposure at 5 mg/kg relative to 1 mg/kg,"[2]; SD rats, intravenous administration, 5 mg/kg versus 1 mg/kg",about 5 times
same,"Exposure and bioavailability (words, comparison)","[2]; SD rats, oral administration 10 mg/kg, 10 mg/kg",sufficiently high bioavailability
same,Cl—F—pred,"[2]; male SD rats, oral 10 mg/kg, Average (Table 9)",2.17 mL/min/kg
same,F,"[2]; male SD rats, oral 10 mg/kg, calculated by intravenous administration of 1 mg/kg, Average (Table 9)",43.54%
same,AUC(0-t),[2]; [3],17400 ng·h/mL
same,Cmax,[2]; [3],9580 ng/mL
same,MRT last,[2]; [3],3.65 h
same,AUC(0-inf),[2]; [3],17400 ng·h/mL
same,clearance,[2]; [3],1 mL/min/kg
same,half-life,[2]; [3],2.9 h
same,Vd,[2]; [3],0.24 L/kg
same,AUC(0-t),[2]; [4],18500 ng·h/mL
same,Cmax,[2]; [4],7120 ng/mL
same,MRT last,[2]; [4],3.99 h
same,AUC(0-inf),[2]; [4],18500 ng·h/mL
same,clearance,[2]; [4],0.833 mL/min/kg
same,half-life,[2]; [4],3.2 h
same,Vd,[2]; [4],0.25 L/kg
same,AUC(0-t),[2]; [5],80200 ng·h/mL
same,Cmax,[2]; [5],51400 ng/mL
same,MRT last,[2]; [5],3.44 h
same,AUC(0-inf),[2]; [5],80500 ng·h/mL
same,clearance,[2]; [5],1 mL/min/kg
same,half-life,[2]; [5],3.08 h
same,Vd,[2]; [5],0.28 L/kg
same,AUC(0-t),[2]; [6],90800 ng·h/mL
same,Cmax,[2]; [6],55700 ng/mL
same,MRT last,[2]; [6],3.65 h
same,AUC(0-inf),[2]; [6],91100 ng·h/mL
same,clearance,[2]; [6],0.833 mL/min/kg
same,half-life,[2]; [6],3.12 h
same,Vd,[2]; [6],0.25 L/kg
same,AUC(0-t),[2]; [7],75600 ng·h/mL
same,Cmax,[2]; [7],6480 ng/mL
same,MRT last,[2]; [7],6.51 h
same,AUC(0-inf),[2]; [7],76200 ng·h/mL
same,half-life,[2]; [7],3.16 h
same,Vd/F,[2]; [7],0.61 L/kg
same,AUC(0-t),[2]; [8],71500 ng·h/mL
same,Cmax,[2]; [8],6030 ng/mL
same,MRT last,[2]; [8],6.64 h
same,AUC(0-inf),[2]; [8],72100 ng·h/mL
same,half-life,[2]; [8],3.15 h
same,Vd/F,[2]; [8],0.63 L/kg
